Laboratory results: ChEMBL document CHEMBL2375326, “Novel IKKβ inhibitors discovery based on the co-crystal structure by using binding-conformation-based and ligand-based method” (Eur J Med Chem, 2013)

These compounds were tested against T1, Inhibitor of nuclear factor kappa-B kinase subunit beta (Homo sapiens, UniProt O14920). Conditions: read-out: IC50.
T1 sequence (O14920 whole entry): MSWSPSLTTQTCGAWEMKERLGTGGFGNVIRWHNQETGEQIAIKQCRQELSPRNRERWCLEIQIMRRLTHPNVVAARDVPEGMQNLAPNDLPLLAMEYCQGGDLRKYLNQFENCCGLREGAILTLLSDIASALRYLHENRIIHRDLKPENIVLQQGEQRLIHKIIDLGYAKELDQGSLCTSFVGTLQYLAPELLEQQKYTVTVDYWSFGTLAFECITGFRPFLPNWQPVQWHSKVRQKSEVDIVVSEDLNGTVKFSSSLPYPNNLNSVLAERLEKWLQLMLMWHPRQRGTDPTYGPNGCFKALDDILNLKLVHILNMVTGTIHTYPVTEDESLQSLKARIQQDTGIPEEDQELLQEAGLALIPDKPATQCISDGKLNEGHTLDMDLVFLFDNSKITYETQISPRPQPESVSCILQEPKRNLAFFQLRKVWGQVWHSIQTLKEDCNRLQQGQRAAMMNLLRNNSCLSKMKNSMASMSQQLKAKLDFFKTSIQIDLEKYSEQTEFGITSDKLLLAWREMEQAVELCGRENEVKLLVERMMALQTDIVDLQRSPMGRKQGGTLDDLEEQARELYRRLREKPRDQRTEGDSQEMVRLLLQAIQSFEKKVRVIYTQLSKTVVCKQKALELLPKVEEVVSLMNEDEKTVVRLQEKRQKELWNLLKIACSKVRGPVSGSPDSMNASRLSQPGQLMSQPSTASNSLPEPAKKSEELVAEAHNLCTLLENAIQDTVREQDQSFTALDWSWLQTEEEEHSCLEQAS

IC50 | SMILES
9690 nM | Cc1sc(N)c2c(=O)oc3c4ccccc4ccc3c12
2440 nM | Cc1c(-c2ccc3c(c2)COC3)sc(N)c1C#N

Same assay, conditions: read-out: pIC50 (converted)

IC50 | SMILES
20000 nM | N#Cc1c(-c2ccc([N+](=O)[O-])cc2)cc(-c2ccccc2O)nc1N
9.12 nM | CNc1nc2cc(-c3cccc(CCC(=O)O)c3)sc2n2c(C)cnc12
6030 nM | c1ccc(Oc2ccc(-c3ccnc(Nc4ccc5ncsc5c4)n3)cc2)cc1
263 nM | NC(=O)Nc1sc(C#CC2CC2)cc1C(N)=O
33.1 nM | CNc1nc2sc(-c3ccc(N4CC=CCC4)cc3)nc2c2c1ncn2C
32.4 nM | CNCCNS(=O)(=O)c1ccc(-c2ccnc3[nH]ccc23)cc1
8.51 nM | C#Cc1c(C2CCNCC2)cc(-c2c(O)cccc2OCC2CC2)nc1N
21.9 nM | CNc1nc2cc(-c3ccccc3)sc2n2c(C)cnc12
100000 nM | CNC(=O)c1sc(-c2ccccc2)cc1NC(N)=O
3240 nM | NC(=O)c1sc(-c2ccccc2)cc1N
2510 nM | O=C1C=CC(c2ccc(-c3ccnc(Nc4ccc5ncsc5c4)n3)cc2)C=C1
26.3 nM | CNc1nc2sc(-c3ccc(F)cc3)nc2c2c1ncn2C
15.1 nM | CNc1nc2sc(-c3ccc(C(=O)NCc4cccs4)cc3)nc2c2c1ncn2C
9.12 nM | N#Cc1c(C2CCCNC2)cc(-c2c(O)cccc2OCc2ccccc2)nc1N (configuration not stated)
15.1 nM | CNC(=O)c1ccc(-c2nc3c(nc(NC)c4ncn(C)c43)s2)cc1
7.08 nM | CNc1nc2[nH]c(-c3cccc(C#N)c3)cc2c2c1ncn2C
20000 nM | CN(C)c1ccc(-c2cc(-c3ccccc3O)nc(N)c2C#N)cc1
21.9 nM | CNc1nc2[nH]c(-c3cccc(CNC(=O)CCC(N)=O)c3)cc2c2c1ncn2C
12 nM | CNc1nc2[nH]c(-c3cccc(CNC(=O)CCOC)c3)cc2c2c1ncn2C
39.8 nM | NC(=O)Nc1cc(-c2cccc(Cl)c2)sc1C(N)=O
39.8 nM | Cc1cnc2c(NCCN3CCNCC3)nc3cc(-c4ccccc4)sc3n12

IC50 | SMILES
10000 nM | NC(=O)Nc1ncc(-c2ccccc2)nc1C(N)=O
447 nM | Cc1cnc2c(NCCN)nc3cc(-c4ncc[nH]4)sc3n12
15.1 nM | CCNC(=O)c1ccc(-c2nc3c(nc(NC)c4ncn(C)c43)s2)cc1
28.2 nM | CNc1nc2sc(-c3ccc(SC)cc3)nc2c2c1ncn2C
25.1 nM | NC(=O)Nc1cc(-c2ccccc2)sc1C(N)=O
229 nM | CNc1nc2cc(-c3nccs3)sc2c2c1ncn2C
316 nM | CN(c1ccc(-c2ccnc3[nH]ccc23)cc1)S(C)(=O)=O
100000 nM | NC(=O)Nc1sc(C#Cc2cccc(NC(=O)c3ccccn3)c2)cc1C(N)=O
2.51 nM | Cc1cnc2c(NCCN)nc3cc(-c4ccc[nH]4)sc3n12
15800 nM | COc1c(C(N)=O)cc(-c2ccccc2)cc1-c1ccncc1
25.7 nM | CC(=O)c1cc2cc(Nc3nccc(-c4ccc(S(=O)(=O)N5CCNCC5)cc4)n3)ccc2o1
15800 nM | CNC(=O)c1cc(-c2ccc(F)cc2)cc(-c2ccc(N3CCCCC3)cc2)c1N
42.7 nM | CNc1nc2[nH]c(-c3ccc(F)cc3)cc2c2c1ncn2C
15800 nM | CNC(=O)c1cc(-c2ccc(F)cc2)cc(-c2ccc(S(C)(=O)=O)cc2)c1N
> 100000 nM | CN(CCN)C(=O)c1ccc(Nc2nccc(-c3cc4ccccc4s3)n2)cc1
1580 nM | NC(=O)c1sc(-c2ccccc2)cc1NS(=O)(=O)c1ccc(F)cc1
26.3 nM | N#Cc1c(C2CCCNC2)cc(-c2c(O)cccc2OCC2CCCCC2)nc1N (configuration not stated)
7.94 nM | CNc1nc2[nH]c(-c3cccc(OC)c3)cc2c2c1ncn2C
117 nM | O=S(=O)(c1ccc(-c2ccnc(Nc3cc(F)cc(F)c3)n2)cc1)N1CCNCC1
20000 nM | CCS(=O)(=O)N1CCC(COc2cc3cnccc3cc2-c2ccccc2)CC1
100000 nM | NC(=O)c1sc(-c2ccccc2)cc1NC(=O)NCc1ccccc1

These compounds were tested against T2, Inhibitor of nuclear factor kappa-B kinase subunit beta (Homo sapiens) (UniProt O14920) (assay: Inhibition of human IKKbeta using GST-IkappaBalpha as substrate at 10 uM). Conditions: not given.
T2 sequence (whole entry): T1 sequence (O14920 whole entry)

inhibition | SMILES
29.6% | O=C(c1ccco1)c1coc2c1cc(O)c1ccccc12
100% | N#Cc1c(C2CCNCC2)cc(-c2c(O)cccc2OCC2CC2)nc1N
44.8% | OC[C@@H](O)[C@@H](O)[C@H](O)c1nn(-c2ccccc2)c2nc3ccc(Cl)cc3nc12
44.4% | NC(=O)C[C@H](Nc1ncc2c(n1)-c1ccccc1OC2)C(=O)O
47.1% | Nc1nc(=O)c2ncn(-c3cccc(-c4ccccc4)c3)c2[nH]1
44.3% | CC[C@H](OC(=O)Nc1ccc(S(=O)(=O)N2CCCCC2)cc1)c1ccco1
64.1% | Cc1sc(N)c2c(=O)oc3c4ccccc4ccc3c12
92.4% | Cc1c(-c2ccc3c(c2)COC3)sc(N)c1C#N
23.8% | COC(=O)c1ccc(NC(=O)COc2ccc(S(=O)(=O)NC(C)(C)C)cc2)cc1
41.5% | CCCCc1ccc(-n2cnc3c(=O)[nH]c(N)nc32)cc1
36.7% | CC(C)NC[C@@H](O)COc1cccc2[nH]c3ccccc3c12
23.4% | Cc1ccc(-c2cc3c(c(N)c2C#N)c(=O)oc2ccccc23)o1
43.8% | CCOC(=O)c1c(N)oc(=O)c2c1-c1ccccc1C2=O
